Reference: patent US12410208B2, “(2-acetamidyl)thio-beta-D-galactopyranoside derivatives” (Idorsia Pharmaceuticals Ltd, priority 2020, dated 2025)
Read-outs that look alike come from different tables or passages of the source.

Experiments:
[1] = molecular target: biotinylated human Gal-3 (hGal-3) (Homo sapiens, UniProt P17931); test: Competitive binding assay: biotinylated hGal-3 binding to microplate-adsorbed asialofetuin (ASF), spectrophotometric
Method in brief: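 Serially diluted compounds competed with asialofetuin on the plate for biotinylated human Gal-3 during a 3 h incubation at 4° C. Streptavidin-peroxidase with ABTS gave the spectrophotometric signal. IC50 values were averaged over repeat runs.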

human Gal-1 (hGal-1) = human Gal-1 (hGal-1) (Homo sapiens, UniProt P09382); test: Competitive binding assay: biotinylated hGal-1 binding to microplate-adsorbed asialofetuin (ASF), spectrophotometric; details: hGal-1 binding to asialofetuin; Table 15; R and S epimers of selected Examples also listed; read-out: IC50 (Galectin-1 inhibition)
Method in brief: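 Spectrophotometric competition readout with ABTS after streptavidin-peroxidase (80 ng/mL, 1 h, 4 °C) detection of bound biotinylated hGal-1.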

[2] = Table 11, hGal-3, read-out: IC50 (Gal-3 inhibition)
[3] = Table 8, hGal-3, read-out: IC50 (Gal-3 inhibition)
[4] = Gal-3 inhibition, Table 5, read-out: IC50

human Gal-1 (hGal-1), sequence (P09382 whole entry): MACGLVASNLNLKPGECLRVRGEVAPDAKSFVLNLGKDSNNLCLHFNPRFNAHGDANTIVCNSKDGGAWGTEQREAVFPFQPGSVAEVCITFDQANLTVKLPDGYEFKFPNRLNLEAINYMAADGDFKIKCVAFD
biotinylated human Gal-3 (hGal-3), sequence (P17931 whole entry): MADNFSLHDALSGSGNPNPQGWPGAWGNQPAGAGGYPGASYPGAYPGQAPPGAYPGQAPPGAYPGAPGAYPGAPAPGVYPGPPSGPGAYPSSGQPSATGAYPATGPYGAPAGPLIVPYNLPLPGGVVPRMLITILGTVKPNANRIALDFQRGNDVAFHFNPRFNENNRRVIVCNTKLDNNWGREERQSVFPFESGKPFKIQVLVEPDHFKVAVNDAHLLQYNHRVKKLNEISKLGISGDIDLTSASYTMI

Compound | IC50 [1, 2] [nM] | IC50 (human Gal-1 (hGal-1)) [nM] | IC50 [1, 4] [nM] | IC50 [1, 3] [nM]
CCN(C)C(=O)C(S[C@@H]1O[C@H](CO)[C@H](O)[C@H](n2cc(-c3nc(Br)cs3)nn2)[C@H]1O)C1(O)CCOCC1 (stereo partly drawn) [Example 14.41.203., 2-(((2S,3R,4S,5R,6R)-4-(4-(4-Bromothiazol-2-yl)-1H-1,2,3-triazol-1-yl)-3,5-dihydroxy-6-(hydroxymethyl)tetrahydro-2H-pyran-2-yl)thio)-N-ethyl-2-(4-hydroxytetrahydro-2H-pyran-4-yl)-N-methylacetamide] | 150 | 30 | – | –
CCN(C)C(=O)C(S[C@@H]1O[C@H](CO)[C@H](O)[C@H](n2cc(-c3cc(F)c(F)c(Cl)c3)nn2)[C@H]1O)C1(O)CCOCC1 (stereo partly drawn) [Example 15.41.203., 2-(((2S,3R,4S,5R,6R)-4-(4-(3-Chloro-4,5-difluorophenyl)-1H-1,2,3-triazol-1-yl)-3,5-dihydroxy-6-(hydroxymethyl)tetrahydro-2H-pyran-2-yl)thio)-N-ethyl-2-(4-hydroxytetrahydro-2H-pyran-4-yl)-N-methylacetamide] | 60 | 80 | – | –
CCN(C)C(=O)C(S[C@@H]1O[C@H](CO)[C@H](O)[C@H](n2cc(-c3cc(C)cc(F)c3)nn2)[C@H]1O)C1(O)CCOCC1 (stereo partly drawn) [Example 20.41.203., N-ethyl-2-(((2S,3R,4S,5R,6R)-4-(4-(3-Fluoro-5-methylphenyl)-1H-1,2,3-triazol-1-yl)-3,5-dihydroxy-6-(hydroxymethyl)tetrahydro-2H-pyran-2-yl)thio)-2-(4-hydroxytetrahydro-2H-pyran-4-yl)-N-methylacetamide] | 60 | 180 | – | –
(2R,3R,4S,5R,6S)-2-(Acetoxymethyl)-6-(((R)-2-(ethyl(methyl)amino)-1-(3-hydroxy-1-(methoxycarbonyl)azetidin-3-yl)-2-oxoethyl)thio)-4-(4-(3,4,5-trifluorophenyl)-1H-1,2,3-triazol-1-yl)tetrahydro-2H-pyran-3,5-diyl diacetate [Example 2.58.203R.] | – | 1180 | – | 450
(2R,3R,4S,5R,6S)-2-(Acetoxymethyl)-6-(((S)-2-(ethyl(methyl)amino)-1-(3-hydroxy-1-(methoxycarbonyl)azetidin-3-yl)-2-oxoethyl)thio)-4-(4-(3,4,5-trifluorophenyl)-1H-1,2,3-triazol-1-yl)tetrahydro-2H-pyran-3,5-diyl diacetate [Example 2.58.203S.] | – | 100 | – | 30
(S)-2-(4,4-Difluoro-1-hydroxycyclohexyl)-2-(((2S,3R,4S,5R,6R)-3,5-dihydroxy-6-(hydroxymethyl)-4-(4-(3,4,5-trifluorophenyl)-1H-1,2,3-triazol-1-yl)tetrahydro-2H-pyran-2-yl)thio)-1-(piperidin-1-yl)ethan-1-one [Example 2.44.208S.] | – | 30 | 20 | –
(S)-2-(((2S,3R,4S,5R,6R)-3,5-Dihydroxy-6-(hydroxymethyl)-4-(4-(3,4,5-trifluorophenyl)-1H-1,2,3-triazol-1-yl)tetrahydro-2H-pyran-2-yl)thio)-2-(1-hydroxycyclohexyl)-N-methyl-N-(pyridin-2-ylmethyl)acetamide [Example 2.39.224S.] | – | 70 | 60 | –
N-Cyclopropyl-4-(2-(ethyl(methyl)amino)-1-(((2S,3R,4S,5R,6R)-5-hydroxy-6-(hydroxymethyl)-3-methoxy-4-(4-(3,4,5-trifluorophenyl)-1H-1,2,3-triazol-1-yl)tetrahydro-2H-pyran-2-yl)thio)-2-oxoethyl)-4-hydroxypiperidine-1-carboxamide [Example 2.49.226.I.] | – | 180 | – | 100

Further compounds by falling IC50 (human Gal-1 (hGal-1)), results first:

IC50 [1, 2] [nM] | IC50 (human Gal-1 (hGal-1)) [nM] | IC50 [1, 4] [nM] | Compound | IC50 [1, 3] [nM]
– | 2820 | 1400 | (R)-2-(((2S,3R,4S,5R,6R)-3,5-Dihydroxy-6-(hydroxymethyl)-4-(4-(3,4,5-trifluorophenyl)-1H-1,2,3-triazol-1-yl)tetrahydro-2H-pyran-2-yl)thio)-2-(1-hydroxycyclohexyl)-N-methyl-N-(pyridin-2-ylmethyl)acetamide [Example 2.39.224R.] | –
– | 1480 | 440 | (R)-N-Cyclobutyl-2-(4,4-difluoro-1-hydroxycyclohexyl)-2-(((2S,3R,4S,5R,6R)-3,5-dihydroxy-6-(hydroxymethyl)-4-(4-(3,4,5-trifluorophenyl)-1H-1,2,3-triazol-1-yl)tetrahydro-2H-pyran-2-yl)thio)-N-methylacetamide [Example 2.44.206R.] | –
40 | 350 | – | CCN(C)C(=O)C(S[C@@H]1O[C@H](CO)[C@H](O)[C@H](n2cc(-c3cc(F)c(Br)c(F)c3)nn2)[C@H]1O)C1(O)CCOCC1 (stereo partly drawn) [Example 18.41.203., 2-(((2S,3R,4S,5R,6R)-4-(4-(4-Bromo-3,5-difluorophenyl)-1H-1,2,3-triazol-1-yl)-3,5-dihydroxy-6-(hydroxymethyl)tetrahydro-2H-pyran-2-yl)thio)-N-ethyl-2-(4-hydroxytetrahydro-2H-pyran-4-yl)-N-methylacetamide] | –
– | 190 | 40 | (S)-N-Cyclobutyl-2-(4,4-difluoro-1-hydroxycyclohexyl)-2-(((2S,3R,4S,5R,6R)-3,5-dihydroxy-6-(hydroxymethyl)-4-(4-(3,4,5-trifluorophenyl)-1H-1,2,3-triazol-1-yl)tetrahydro-2H-pyran-2-yl)thio)-N-methylacetamide [Example 2.44.206S.] | –
150 | 150 | – | CCN(C)C(=O)C(S[C@@H]1O[C@H](CO)[C@H](O)[C@H](n2cc(-c3cc(C)cc(C#N)c3)nn2)[C@H]1O)C1(O)CCOCC1 (stereo partly drawn) [Example 19.41.203., 2-(((2S,3R,4S,5R,6R)-4-(4-(3-Cyano-5-methylphenyl)-1H-1,2,3-triazol-1-yl)-3,5-dihydroxy-6-(hydroxymethyl)tetrahydro-2H-pyran-2-yl)thio)-N-ethyl-2-(4-hydroxytetrahydro-2H-pyran-4-yl)-N-methylacetamide] | –
40 | 140 | – | CCN(C)C(=O)C(S[C@@H]1O[C@H](CO)[C@H](O)[C@H](n2cc(-c3cc(F)c(Cl)c(Cl)c3)nn2)[C@H]1O)C1(O)CCOCC1 (stereo partly drawn) [Example 17.41.203., 2-(((2S,3R,4S,5R,6R)-4-(4-(3,4-Dichloro-5-fluorophenyl)-1H-1,2,3-triazol-1-yl)-3,5-dihydroxy-6-(hydroxymethyl)tetrahydro-2H-pyran-2-yl)thio)-N-ethyl-2-(4-hydroxytetrahydro-2H-pyran-4-yl)-N-methylacetamide] | –
60 | 130 | – | CCN(C)C(=O)C(S[C@@H]1O[C@H](CO)[C@H](O)[C@H](n2cc(-c3ccc(F)c(F)c3)nn2)[C@H]1O)C1(O)CCOCC1 (stereo partly drawn) [Example 16.41.203., 2-(((2S,3R,4S,5R,6R)-4-(4-(3,4-Difluorophenyl)-1H-1,2,3-triazol-1-yl)-3,5-dihydroxy-6-(hydroxymethyl)tetrahydro-2H-pyran-2-yl)thio)-N-ethyl-2-(4-hydroxytetrahydro-2H-pyran-4-yl)-N-methylacetamide] | –
